# No end group written: not given here.
# How the values were obtained:
# [1] = system: mice; experiment: Observation of adverse effects on repetitive daily skin application; type: in vivo
# [2] = system: Complete Freund's Adjuvant (CFA) animal model of chronic inflammatory pain; experiment: Thermal hyperalgesia test (incremental hot plate) in CFA model of chronic inflammatory pain; type: in vivo, mice; conditions: for heat hyperalgesia compared to the inactive L3D-L37pA peptide: Example 3, FIGS. 5(a)-5(e), topical application once a day; for withdrawal latencies to thermal stimuli: CFA in left paw
# Description: The L37pA peptide having the sequence […] (SEQ ID NO: 2) was synthesized by a solid-phase procedure. […] The L37pA and L3D-37pA peptides were formulated into both an intramuscular injectable preparation and a hydrogel or lotion preparation. The intramuscular (IM) injectable formulation contains 0.5 μg/μl of the peptide, with an injection dose of 2 μl/g mouse weight, which equals approximately 20 μg peptide per injection. The hydrogel and lotion formulations each contains 0.2 mg/ml of the peptide. 20-50 μl of the formulations are applied, which is approximately 4-10 μg peptide per single skin treatment. Topical hydrogel and lotion formulations containing a vehicle without any peptide were prepared as additional negative controls.
# In this experiment, the peptide was administered via intramuscular injections. The first group of mice (“CFA group”) were injected with 30 μl of Complete Freund's Adjuvant (CFA) in the plantar surface of the left hind paw. The second group of mice (“Vehicle Group”) were injected with Vehicle (saline) instead of CFA. For each of the CFA and Vehicle Groups, the mice were then injected once a day with the following formulations, with “n” representing the number of mice receiving each formulation: […]
# Thermal hyperalgesia was performed before the CFA injection. The measurement of baseline thermosensitivity was actually carried out before time 0, but it was assumed that the baseline remained the same at time 0. Injection of CFA in the paw and the intramuscular injection of peptide were performed at the same time. Injections of CFA and peptides were performed in left paws. The right paws of the mice remained intact and were used for comparison.
# After administering the L37pA or L3D-37pA peptide, the thermal hyperalgesia test was performed for 30 minutes at 3, 24, and 72 hours post CFA-injection. In the thermal hyperalgesia test, an incremental hot plate with an automatic cut-off temperature of 50° C. was used to induce the nocifensive behaviors of licking a hind paw to identify the thresholds for noxious heat and assess the thermal hyperalgesia. The temperature of the plate at the time when the licking occurred was recorded. The peptides were injected every single day and at 30 minutes prior to the behavior test. In addition, to investigate the effects of the peptides on inflammatory swelling caused by the CFA injection, the thicknesses of the left and right hind paws of the mice were measured post-peptide administration for signs of inflammation. In the figures, *p≤0.05, **p≤0.01, and ***p≤0.001 show comparisons to the Vehicle/L3D-37pA controls at each timepoint.
# In this experiment, the peptide was administered topically once a day. The first group of mice (“CFA group”) were injected with 30 μl of Complete Freund's Adjuvant (CFA) in the plantar surface of the left hind paw. The second group of mice (“Vehicle Group”) were injected with Vehicle (saline) instead of CFA. For each of the CFA and Vehicle groups, the topical formulation was then administered to the mice according to the following experiment design:
# The topical application of the peptides was carried out 21 hours after the saline or CFA injection and applied […] in the following days. In case of topical application of peptide, the peptides were applied 3 hours before the second measurement of thermosensitivity and applied […] afterwards. Thermal hyperalgesia was performed before administration and after administering the L37pA, L3D-37 pA, or vehicle, at 30 minutes after administration. The thermal hyperalgesia test was performed as described above. In addition, the thicknesses of the left and right hind paws of the mice were measured post-peptide administration for signs of inflammation. In the figures, *p 0.05, **p 0.01, and ***p 0.001 show comparisons to the saline/L3D-37pA controls at each timepoint.
# The applicant performed heat hyperalgesia tests similar to the manner discussed above in Example 1. […]
# [3] = target: T1, CD36 (Homo sapiens, UniProt P16671); experiment: IL-8 in conditioned medium (ELISA) of CD36-expressing HEK293 cells after 20 hours incubation with CD36 ligands; type: cell-based; conditions: for IL-8 produced by cells treated with the ligand: CD36-expressing HEK293 cells, increasing ligand concentrations, 20 hours (FIG. 8)
# T1 construct: expressed in transfected cells; host or cells: HEK293
# Description: (§1) Following 20 hours incubation of wild-type (WT) and CD36-expressing (CD36+) HEK293 cells with increasing concentrations of CD36 ligands, the IL-8 levels were determined in conditioned medium by ELISA.
# Following 20 hours incubation of CD36-expressing cells with the indicated amounts of the ligands, the IL-8 levels were determined in conditioned medium.
# (§2) To study this, the applicant conducted cell culture experiments using wildtype (WT) and CD36+ expressing (CD36+) HEK293 cells, treated with increasing amounts of CD36 ligands. Specifically, the ligands tested were the PAMP lipopolysaccharide (LPS) and the DAMPs high mobility group box 1 protein (HMGB1), Histone H3B, and heat shock protein 60 (HSP60). […] Similarly to HSP60, it is presumed that HSP70 and HSP90 also cause inflammation mediated by the CD36 receptor, and which may be alleviated by the disclosed peptides.
# Additionally, the applicant studied the effects of the above-referenced SAHP L37pA as an inhibitor of CD36-dependent, PAMP/DAMP-induced pro-inflammatory response. See FIGS. 9(a)-9(c) To study this, the applicant conducted cell culture experiments using CD36+ HEK293 cells, treated with increasing amounts of CD36 ligands. […] As controls, no treatment, L37pA alone, and L3D alone were administered.
# As controls, no treatment, L37pA alone, and L3D alone were administered. […] L37pA was especially effective in the case of 1 μg/ml and 2.5 μg/ml HMGB1, relative to administrations of HMGB1 alone.
# In FIG. 9(c), the DAMP Histone H3B was administered in the amount of 25 μg/ml alone, in combination with 10 μg/ml L37pA, 25 μg/ml L37pA, 10 μg/ml L3D and 25 µg/ml L3D. As controls, no treatment, 10 μg/ml L37pA alone, 25 μg/ml L37pA alone, 10 μg/ml L3D alone, and 25 μg/ml L3D alone were administered.
# [4] = system: wild-type (WT) HEK293 cells; experiment: IL-8 in conditioned medium (ELISA) of wild-type HEK293 cells after 20 hours incubation with CD36 ligands; type: cell-based; conditions: wildtype HEK293 cells; increasing ligand concentrations; 20 hours (FIG. 8)
# Description: as §1, §2
# T1 sequence (P16671 whole entry): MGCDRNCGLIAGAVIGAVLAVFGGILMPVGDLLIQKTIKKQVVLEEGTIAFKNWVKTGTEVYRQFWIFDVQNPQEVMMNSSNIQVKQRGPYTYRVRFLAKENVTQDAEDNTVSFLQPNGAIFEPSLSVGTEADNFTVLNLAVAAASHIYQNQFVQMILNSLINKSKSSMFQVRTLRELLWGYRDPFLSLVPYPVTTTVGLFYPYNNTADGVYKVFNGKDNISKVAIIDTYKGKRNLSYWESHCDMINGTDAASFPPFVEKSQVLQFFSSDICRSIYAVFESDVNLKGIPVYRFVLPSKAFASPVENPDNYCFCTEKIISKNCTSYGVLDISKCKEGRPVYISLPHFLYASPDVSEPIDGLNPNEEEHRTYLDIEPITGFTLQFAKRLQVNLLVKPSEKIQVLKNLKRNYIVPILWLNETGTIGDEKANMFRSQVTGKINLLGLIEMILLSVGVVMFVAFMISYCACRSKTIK
substance,measurement,setting,value
DWLKAFYDKVAEKLKEAFPDWLKAFYDKVAEKLKEAF [Peptide L37pA],skin irritation or other adverse side effects,[1]; chronic topical administration in the therapeutic range of doses,does not induce skin irritation or other adverse side effects
same,"adverse effects (general toxicity, behavioral changes, weight loss, skin redness, skin erosions)",[1]; up to 14 repetitive daily skin applications of hydrogel formulation,no adverse effects
EKLLELLKKLLELLKKLLPDWLKAFYDKVAEKLKEAF [ELK-B-P-18A],heat hyperalgesia compared to the inactive L3D-L37pA peptide,[2]; CFA,"improved heat hyperalgesia compared to the inactive L3D-L37pA peptide at 3 hours, and particularly improved heat hyperalgesia at 7 days"
EKLLELLKKLLELLKKLLPEKLLELLKKLLELLKKLL [ELK-B],heat hyperalgesia compared to the inactive L3D-L37pA peptide,[2]; CFA,"slightly improved heat hyperalgesia compared to the active L3D-L37pA peptide at 1 day, and similar heat hyperalgesia at other timepoints"
"L3D-37pA: inactive L37pA peptide where three L-lysine's in each A18 were replaced with D-lysine's disrupting the helical structure; negative control (DWLKAFYDKVAEKLKEAFPDWLKAFYDKVAEKLKEAF; also: three of the four Lys in each A18 segment are D-Lys, places not given here) [Peptide L3D-37pA]",withdrawal latencies to thermal stimuli,"[2]; intramuscular peptide approx. 20 μg per injection once a day, 3 hours after CFA (FIG. 2(a))",reduction was even more exaggerated
same,withdrawal latencies to thermal stimuli,"[2]; intramuscular peptide approx. 20 μg per injection once a day, 24 hours after CFA (FIG. 2(a))",only showed a minimal increase
same,withdrawal latencies to thermal stimuli,"[2]; intramuscular peptide approx. 20 μg per injection once a day, three days after CFA (FIG. 2(a))",still showed a significant reduction of withdrawal latencies
same,withdrawal latencies to thermal stimuli,"[2]; topical application 0.2 mg/ml, 24 hours and 3 days after CFA (FIG. 3(a))",remained reduced with only slight increase
same,pain sensation in response to stimuli,"[2]; CFA model, topical hydrogel or lotion, and local intramuscular injection",did not show any pain-reducing activities
same,paw withdrawal temperature of inflamed paws,"[2]; CFA, topical hydrogel or local intramuscular injection, within 3 days post-CFA (FIGS. 2(a), 3(a))",without effect
same,heat hyperalgesia (response temperature),"[2]; Example 2, FIG. 4, CFA, intramuscular injection, 24 h, 3 d, 7 d",did not reduce heat hyperalgesia at any time point
same,production of IL-8 relative to LPS alone,"[3]; 10 ng/ml and 100 ng/ml LPS, 10 μg/ml peptide, CD36+ HEK293 cells, 20 hours",ineffective or only slightly effective
same,production of IL-8 relative to Histone H3B alone,"[3]; 25 μg/ml Histone H3B, 10 μg/ml and 25 μg/ml peptide, CD36+ HEK293 cells, 20 hours",ineffective or only slightly effective
same,production of IL-8 relative to HMGB1 alone,"[3]; 0.25, 1 and 2.5 μg/ml HMGB1, 10 μg/ml peptide, CD36+ HEK293 cells, 20 hours",ineffective or only slightly effective
high mobility group box 1 protein [HMGB1],IL-8 produced by cells treated with the ligand,[4],minimal amount of interleukin 8
same,IL-8 produced by cells treated with the ligand,[3],significant amount of IL-8
lipopolysaccharide [LPS],IL-8 produced by cells treated with the ligand,[4],minimal amount of interleukin 8
same,IL-8 produced by cells treated with the ligand,[3],significant amount of IL-8

# From patent US20250066452A1, “SYNTHETIC AMPHIPATHIC HELICAL PEPTIDES AND TREATMENT METHODS USING SYNTHETIC AMPHIPATHIC HELICAL PEPTIDES” (UNIVERSITY OF MARYLAND, BALTIMORE, priority 2022, published 2025)
